One experiment relates to S. pyogenes C 203. Description: in vivo activity in mice infected with S. pyogenes.
In the next experiment the test system is Strepto. pyogenes C 203. Description: in vitro antibacterial activity, MIC. Conditions: inoculum about 10^4 CFU/ml, 18-24 h at 37° C. It counts as cell-based. As for the experimental part:
(§1) ISOSENSITEST broth, culture medium (Oxoid) and Todd-Hewitt broth, culture medium (Difco) are used for growing staphylococci and streptococci, respectively. Broth cultures are diluted so that the final inoculum is about 10^4 colony forming units/ml (CFU/ml).

In a further experiment the test system is Staph. haemoliticus 602. Description: in vitro antibacterial activity, MIC. It counts as cell-based. The conditions noted are these: inoculum about 10^4 CFU/ml, 18-24 h at 37° C. The protocol: as §1
The test system of the next experiment is E. coli SKF 12140. Description: in vitro antibacterial activity, MIC. It counts as cell-based. The conditions noted are these: inoculum about 10^4 CFU/ml, 18-24 h at 37° C. As for the experimental part:
as §1

Experiment [1] concerns Proteus vulgaris X 19H ATCC 881. Description: in vitro antibacterial activity, MIC. It counts as cell-based. The conditions noted are these: inoculum about 10^4 CFU/ml, 18-24 h at 37° C. The protocol:
as §1

Experiment [2] relates to Pseudomonas aeruginosa ATCC 10145. Description: in vitro antibacterial activity, MIC. The conditions noted are these: inoculum about 10^4 CFU/ml, 18-24 h at 37° C. It counts as cell-based. The protocol: as §1
For experiment [3], the system named is Strepto. pneumoniae UC 41. Description: in vitro antibacterial activity, MIC. It counts as cell-based. The conditions noted are these: inoculum about 10^4 CFU/ml, 18-24 h at 37° C. The protocol: as §1
Another experiment has as its system Staph. aureus Tour. Description: in vitro antibacterial activity, MIC. It counts as cell-based. Conditions: inoculum about 10^4 CFU/ml, 18-24 h at 37° C. As for the experimental part:
as §1

In experiment [4] the test system is Staph. epidermidis ATCC 12228. Description: in vitro antibacterial activity, MIC. It counts as cell-based. Conditions: inoculum about 10^4 CFU/ml, 18-24 h at 37° C. As for the experimental part: as §1
Experiment [5] deals with Strepto. faecalis ATCC 7080. Description: in vitro antibacterial activity, MIC. Conditions: inoculum about 10^4 CFU/ml, 18-24 h at 37° C. It counts as cell-based. As for the experimental part:
as §1

The structures appear in SMILES notation.

For the compound `CCCCC(NC(=O)C1NC(=O)C2NC(=O)C(NC(=O)C3NC(=O)C4NC(=O)C(Cc5ccc(c(Cl)c5)Oc5cc3cc(c5O)Oc3ccc(cc3Cl)C2O)NC(=O)C(NC(=O)OC(C)(C)C)c2ccc(O)c(c2)Oc2cc(O)cc4c2)c2ccc(O)c(c2)-c2c(O)cc(O)cc21)C(=O)NCCS` (centres unmarked) [Compound 20], the figures for the ED50 in the experiment on S. pyogenes C 203 (route of administration p.o.) and in the experiment on S. pyogenes C 203 (route of administration s.c) were greater than 300 mg/kg and 8.70 mg/kg, respectively.

Regarding `Cl.NC1C(=O)NC2Cc3ccc(c(Cl)c3)Oc3cc4cc(c3O)Oc3ccc(cc3Cl)C(O)C3NC(=O)C(NC(=O)C4NC(=O)C(NC2=O)c2cc(O)cc(c2)Oc2cc1ccc2O)c1ccc(O)c(c1)-c1c(O)cc(O)cc1C(C(=O)NC(CCC(=O)N1CCSCC1)C(=O)N1CCSCC1)NC3=O` (centres unmarked) [Compound 22], the minimal inhibitory concentration (MIC) against Strepto. pyogenes C 203 was 0.12 µg/mL; with Staph. haemoliticus 602 it was 0.12 µg/mL; with E. coli SKF 12140 it was greater than 128 µg/mL; in experiment [1], greater than 128 µg/mL; in experiment [2], greater than 128 µg/mL; in experiment [3], 0.12 µg/mL. Further, the figures for the MIC (in the experiment with Staph. aureus Tour; in [4]; in experiment [5]) were 0.12 µg/mL, 0.06 µg/mL and 0.12 µg/mL, respectively.

The ED50 is the midpoint of the dose-response relation. The low end stands for greater potency, the high end for weaker potency. A word on the MIC: it is the lowest concentration that inhibits growth of the organism. Lower therefore signals greater potency.
